US20090099167A1, “Organic compounds” (Novartis Institutes for Biomedical Research, priority 2004, published 2009)
Like-named read-outs stand apart in the source and are kept apart here.

Legend:
c-Abl kinase = target: T1, c-Abl kinase (Homo sapiens, UniProt P00519); assay: c-Abl protein-tyrosine kinase filter binding assay; assay type: biochemical
T1 construct: The His-tagged kinase domain of c-Abl is cloned and expressed in the baculovirus/Sf9 system; His; made in house; host or cells: Sf9 (baculovirus)
T1 sequence (P00519 242-493 limits assumed): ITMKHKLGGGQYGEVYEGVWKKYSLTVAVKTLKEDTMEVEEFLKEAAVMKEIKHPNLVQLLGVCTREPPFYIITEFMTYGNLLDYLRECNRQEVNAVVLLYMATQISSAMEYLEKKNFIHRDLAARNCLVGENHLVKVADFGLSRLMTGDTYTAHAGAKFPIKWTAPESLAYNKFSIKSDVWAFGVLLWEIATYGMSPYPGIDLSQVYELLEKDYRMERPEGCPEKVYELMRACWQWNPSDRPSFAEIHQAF
Procedure: The His-tagged kinase domain of c-Abl is cloned and expressed in the baculovirus/Sf9 system as described by Bhat et al. in J. Biol. Chem. 1997; 272:16170-16175. A protein of 37 kD (c-Abl kinase) is purified by a two-step procedure over a Cobalt metal chelate column followed by an anion exchange column with a yield of 1-2 mg/L of Sf9 cells (Bhat et al., reference cited). The purity of the c-Abl kinase is >90% as judged by SDS-PAGE after Coomassie blue staining. The assay contains (total volume of 30 μL): c-Abl kinase (50 ng), 20 mM Tris.HCl, pH 7.5, 10 mM MgCl2, 10 μM Na3VO4, 1 mM DTT and 0.06 μCi/assay [γ^33 P]-ATP (5 μM ATP) using 30 μg/mL poly-Ala,Glu,Lys,Tyr-6:2:5:1 (Poly-AEKY, Sigma P1152) in the presence of 1% DMSO. Reactions are terminated by adding 10 μL of 250 mM EDTA and 30 μL of the reaction mixture is transferred onto Immobilon-PVDF membrane (Millipore, Bedford, Mass., USA) previously soaked for 5 min with methanol, rinsed with water, then soaked for 5 min with 0.5% H3PO4 and mounted on vacuum manifold with disconnected vacuum source. After spotting all samples, vacuum is connected and each well rinsed with 200 μL 0.5% H3PO4. Membranes are removed and washed on a shaker with 0.5% H3PO4 (4 times) and once with ethanol. Membranes are counted after drying at ambient temperature, mounting in Packard TopCount 96-well frame, and addition of 10 μL/well of Microscint™ (Packard).

c-Src kinase = c-Src kinase (Homo sapiens, UniProt P12931); assay: c-Src kinase inhibition; assay type: biochemical
Sequence of c-Src kinase (P12931 whole entry): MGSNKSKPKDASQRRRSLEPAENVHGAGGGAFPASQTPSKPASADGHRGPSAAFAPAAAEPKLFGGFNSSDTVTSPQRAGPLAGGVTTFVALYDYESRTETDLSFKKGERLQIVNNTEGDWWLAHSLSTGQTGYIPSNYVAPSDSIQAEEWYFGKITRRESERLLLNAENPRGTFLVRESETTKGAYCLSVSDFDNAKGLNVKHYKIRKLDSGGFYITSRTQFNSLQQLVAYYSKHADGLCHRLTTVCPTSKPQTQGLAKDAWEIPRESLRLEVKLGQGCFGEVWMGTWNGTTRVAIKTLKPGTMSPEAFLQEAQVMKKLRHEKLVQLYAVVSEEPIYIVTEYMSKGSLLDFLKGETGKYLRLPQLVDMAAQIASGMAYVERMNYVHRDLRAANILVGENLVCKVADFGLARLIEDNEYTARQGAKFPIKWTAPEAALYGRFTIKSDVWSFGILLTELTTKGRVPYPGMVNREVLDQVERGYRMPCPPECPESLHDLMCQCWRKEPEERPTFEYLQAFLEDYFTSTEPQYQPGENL
From the text: An appropriate assay is described in Andrejauskas-Buchdunger et al., Cancer Res. 52, 5353-8 (1992).

human IGF-IR = target: T2, human IGF-IR (Homo sapiens, UniProt P08069); assay: IGF-1R tyrosine kinase assay, GST-IGF-1R; assay type: biochemical; conditions: Table 5; read-out: IGF-1R, IC50 class
T2 construct: expresses the amino acid region 950-1337 of the mature peptide cytoplasmic domain of the human IGF-IR; made in house; host or cells: baculovirus (Bac-to-Bac)
T2 sequence (P08069 980-1367): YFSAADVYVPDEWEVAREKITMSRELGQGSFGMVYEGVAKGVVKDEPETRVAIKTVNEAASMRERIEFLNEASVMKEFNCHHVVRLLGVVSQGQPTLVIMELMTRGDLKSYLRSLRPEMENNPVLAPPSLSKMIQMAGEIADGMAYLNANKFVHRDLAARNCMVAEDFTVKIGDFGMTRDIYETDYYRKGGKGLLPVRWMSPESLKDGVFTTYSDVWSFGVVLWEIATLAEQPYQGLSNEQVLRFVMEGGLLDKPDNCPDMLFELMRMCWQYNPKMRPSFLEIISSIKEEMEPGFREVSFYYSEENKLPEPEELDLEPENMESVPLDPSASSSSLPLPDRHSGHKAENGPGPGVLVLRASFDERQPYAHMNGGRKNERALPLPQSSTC
From the text: The inhibition of IGF-1R and Ins-R can be determined as follows: The baculovirus donor vector pfbgx3IGFIRcd is used to generate a recombinant baculovirus that expresses the amino acid region 950-1337 of the mature peptide cytoplasmic domain of the human IGF-IR. To generate the cDNA fragment encoding the amino acid region 919-1343 of the intra-cytoplasmic kinase domain of the human insulin receptor, pC5hInsR is used. The fragments of the human IGF-IR and Ins-R are cloned, expressed and small-scale purified as a factor Xa-cleavable glutathione-S-transferase (GST)-fusion protein using the Bac-to-Bac™ system (GIBCO BRL) of recombinant baculovirus generation. Virus containing media is collected from the transfected cell culture and used for infection to increase its titer. Virus containing media obtained after two rounds of infection is used for large-scale protein expression. Cell extracts are prepared and loaded onto a glutathione-Sepharose (Pharmacia) column. After washing, the GST-tagged proteins are then eluted with a glutathione-containing buffer. Purified protein is stored at −70° C. in elution buffer. Tyrosine protein kinase assays with purified GST-IGF-1R and GST-ins-R are carried in a final volume of 30 μl containing 20 mM Tris-HCl, pH 7.6, 10 mM MgCl2, 0.01 mM Na3VO4, 1% DMSO, 1 mM DTT, 3 μg/ml poly(Glu,Tyr) 4:1 and 10 μM ATP (γ-[^33P]-ATP 0.1 μCi). The assay is performed in 96-well plates at ambient temperature for 20 min and terminated by addition of 25 μl 0.05 M EDTA pH 7.0. An aliquot of 40 μl is spotted with a multichannel dispenser on Whatman P81 membranes mounted in a Millipore Microtiter filter manifold connected to a low vacuum source. After elimination of liquid, the membrane is transferred to a sequence of 4 washing baths containing 0.5% H3PO4 and one with EtOH (shaking incubation for 10 min each), dried, mounted onto a Hewlett Packard TopCount manifold added 10 μl Microscint® and counted. Compounds of formula (I) show up to 90% inhibition of Ins-R at 10,000 nM, preferably between 60-90% inhibition. The inhibition of Tek can be determined as follows: The procedure of the expression, purification and assay these kinases has been described. Fabbro et al., Pharmacol. Ther. 82(2-3) 293-301 (1999). In brief, the glutathione S-transferase (GST) gene from the pAcG1 vector (Pharmingen) is excised with EcoRV and EcoRI and inserted into the cloning site of the Fast-Bac baculoviral vector (GIBCO) creating a 5530 bp vector with N-terminal cloning sites derived from the pAcG1 fusion vector (FBG0). The C-terminal cloning site may be any cloning site (from the Fast-Bac vector) downstream of the N-terminal cloning site used. N-terminally GST-fused (pAcG1, Pharmingen) KDR, Flt-1, Flk-1, Tek and PDGFR-β kinase domains are obtained from ProQinase, Freiburg, Germany. Tek is recloned into the FBG1 vector by EcoRI excision and ligation into EcoRI digested FBG1 (FBG1-Tek). The coding sequences for the whole cytoplasmic domain of c-Kit (aa 544-976) and c-Fms (aa 538-972) are amplified by PCR from human uterus and from human bone marrow cDNA libraries (Clontech), respectively. The amplified DNA fragments are fused to GST by cloning them into FBG1 as BamHI-EcoRI insertions, to yield FBG1-c-Kit and FBG1-c-Fms. Tek is recloned into the FBG0 transfer vector by EcoRI excision and ligation into EcoRI digested FBG0 (FBG-Tie2/Tek). FGFR-1 and c-met kinase domains are obtained by PCR from human A431 cells. N-terminal primers contain an overhanging EcoRI site, while C-terminal primers contain a XhoI site to aid cloning into the transfer vectors. After digestion of both the PCR fragments and FBG0 the cleavage products are gel-purified and ligated together to form the kinase constructs (FBG-Met, FBG-FGFR-1).

[1] = Table 4, read-out: c-abl, activity (IC50 for kinase inhibition)
[2] = Table 5, read-out: c-scr, IC50 class
[3] = Table 5, read-out: C-abl, IC50 class

| Compound | IC50 (c-Abl kinase; [1]) [nM] | IC50 (c-Src kinase; Table 4, read-out: s-Scr, activity (IC50 for kinase inhibition)) [nM] | melting point [°C] | IC50 (c-Src kinase; [2]) [nM] | IC50 (c-Abl kinase; [3]) [nM] | IC50 (human IGF-IR) [nM] |
| --- | --- | --- | --- | --- | --- | --- |
| CN1CCN(c2ccc(-c3cnn4c(N)c(-c5cccc(O)c5)cnc34)cc2)CC1 [Example 1, 3-{7-Amino-3-[4-(4-methyl-piperazin-1-yl)-phenyl]-pyrazolo[1,5-a]pyrimidin-6-yl}-phenol] | < 10000 | – | – | – | – | – |
| Nc1c(-c2cccc(O)c2)cnc2c(-c3cccnc3)cnn12 [Example 46, 3-[7-Amino-3-pyridin-3-yl-pyrazolo[1,5-a]pyrimidin-6-yl]-phenol] | < 10000 | – | – | – | – | – |
| COc1ccccc1-c1cnn2c(N)c(-c3cccc(O)c3)cnc12 [Example 48, 3-[7-Amino-3-(2-methoxy-phenyl)-pyrazolo[1,5-a]pyrimidin-6-yl]-phenol] | < 10000 | < 10000 | – | – | – | – |
| COc1cccc(-c2cnn3c(N)c(-c4cccc(O)c4)cnc23)c1 [Example 60, 3-[7-Amino-3-(3-methoxy-phenyl)-pyrazolo[1,5-a]pyrimidin-6-yl]-phenol] | < 10000 | – | – | – | – | – |
| Cc1nc2c(-c3cccc(N4CCN(C)CC4)c3)cnn2c(N)c1-c1cccc(Cl)c1 [Example 72, 6-(3-Chloro-phenyl)-5-methyl-3-[3-(4-methyl-piperazin-1-yl)-phenyl]-pyrazolo[1,5-a]pyrimidin-7-ylamine] | – | – | 110 to 115 | < 1000 | < 1000 | > 10000 |
| Cc1nc2c(-c3ccc(N4CCN(C)CC4)cc3)cnn2c(N)c1-c1cccc(Cl)c1 [Example 73, 6-(3-Chloro-phenyl)-5-methyl-3-[4-(4-methyl-piperazin-1-yl)-phenyl]-pyrazolo[1,5-a]pyrimidin-7-ylamine] | – | – | 113 to 115 | < 1000 | < 1000 | > 10000 |
| COc1cc(N2CCN(C)CC2)ccc1-c1cnn2c(N)c(-c3cccc(Cl)c3)c(C)nc12 [Example 75, 6-(3-Chloro-phenyl)-3-[2-methoxy-4-(4-methyl-piperazin-1-yl)-phenyl]-5-methyl-pyrazolo[1,5-a]pyrimidin-7-ylamine] | – | – | 215 to 217 | – | < 1000 | – |
| COc1cc(N2CCN(C)CC2)ccc1-c1cnn2c(N)c(-c3cccc(O)c3)cnc12 [Example 76, 3-{7-Amino-3-[2-methoxy-4-(4-methyl-piperazin-1-yl)-phenyl]-pyrazolo[1,5-a]pyrimidin-6-yl}-phenol] | – | – | 217 to 220 | – | – | – |
| CN1CCN(c2ccc(-c3cnn4c(N)c(-c5ccccc5Cl)cnc34)cc2)CC1 [Example 77, 6-(2-Chloro-phenyl)-3-[4-(4-methyl-piperazin-1-yl)-phenyl]-pyrazolo[1,5-a]pyrimidin-7-ylamine] | – | – | 197 to 200 | – | – | – |
| CN1CCN(c2cccc(-c3cnn4c(N)c(-c5ccccc5Cl)cnc34)c2)CC1 [Example 78, 6-(2-Chloro-phenyl)-3-[3-(4-methyl-piperazin-1-yl)-phenyl]-pyrazolo[1,5-a]pyrimidin-7-ylamine] | – | – | 200 to 203 | – | – | – |

Results, then the molecule that gave them:

| IC50 (c-Abl kinase; [1]) [nM] | IC50 (c-Src kinase; Table 4, read-out: s-Scr, activity (IC50 for kinase inhibition)) [nM] | melting point [°C] | IC50 (c-Src kinase; [2]) [nM] | IC50 (c-Abl kinase; [3]) [nM] | IC50 (human IGF-IR) [nM] | Compound |
| --- | --- | --- | --- | --- | --- | --- |
| – | – | 289 to 291 | < 1000 | < 1000 | > 10000 | Cc1nc2c(-c3ccc(N4CCN(C)CC4)cc3)cnn2c(N)c1-c1ccc(F)cc1 [Example 79, 6-(4-Fluoro-phenyl)-5-methyl-3-[4-(4-methyl-piperazin-1-yl)-phenyl]-pyrazolo[1,5-a]pyrimidin-7-ylamine] |
| – | – | 204 to 206 | < 1000 | < 1000 | > 10000 | Cc1nc2c(-c3cccc(N4CCN(C)CC4)c3)cnn2c(N)c1-c1ccc(F)cc1 [Example 80, 6-(4-Fluoro-phenyl)-5-methyl-3-[3-(4-methyl-piperazin-1-yl)-phenyl]-pyrazolo[1,5-a]pyrimidin-7-ylamine] |
| – | – | 180 to 185 | < 1000 | < 1000 | < 1000 | Cc1nc2c(-c3cccc(N4CCN(C5CCN(C)CC5)CC4)c3)cnn2c(N)c1-c1cccc(Cl)c1 [Example 81, 6-(3-Chloro-phenyl)-5-methyl-3-{3-[4-(1-methyl-piperidin-4-yl)-piperazin-1-yl]-phenyl}-pyrazolo[1,5-a]pyrimidin-7-ylamine] |
| – | – | 224 to 226 | < 1000 | < 1000 | > 10000 | Cc1nc2c(-c3cccc(N4CCN(C)CC4)c3)cnn2c(N)c1-c1ccc(F)c(Cl)c1 [Example 82, 6-(3-Chloro-4-fluoro-phenyl)-5-methyl-3-[3-(4-methyl-piperazin-1-yl)-phenyl]pyrazolo[1,5-a]pyrimidin-7-ylamine] |
| – | – | 228 to 230 | – | – | > 10000 | COc1ccc(-c2cnn3c(N)c(-c4cccc(Cl)c4)c(CF)nc23)cc1OC [Example 92, 6-(3-Chloro-phenyl)-3-(3,4-dimethoxy-phenyl)-5-fluoromethyl-pyrazolo[1,5-a]pyrimidin-7-ylamine] |
| – | – | – | < 1000 | < 1000 | > 10000 | Cc1nc2c(-c3cccc(N4CC[N+](C)([O-])CC4)c3)cnn2c(N)c1-c1ccc(F)cc1 [Example 106, 6-(4-Fluoro-phenyl)-5-methyl-3-[3-(4-methyl-4-oxy-piperazin-1-yl)-phenyl]-pyrazolo[1,5-a]pyrimidin-7-ylamine] |
| – | – | – | < 1000 | < 1000 | > 10000 | Cc1nc2c(-c3cccc([N+]4([O-])CC[N+](C)([O-])CC4)c3)cnn2c(N)c1-c1ccc(F)cc1 (stereo not drawn) [Example 107, 6-(4-Fluoro-phenyl)-5-methyl-3-[3-(4-methyl-1,4-dioxy-piperazin-1-yl)-phenyl]-pyrazolo[1,5-a]pyrimidin-7-ylamine] |
